Measured values from US6022868A, “Substituted azacyclic or azabicyclic compounds” (Novo Nordisk Als, priority 1995, dated 2000).

Experiments:
[1] = molecular target: T1, nicotinic acetylcholine receptors (Rattus norvegicus, UniProt P09483+P12390); experiment: inhibition of specific binding of 3H-methylcarbamylcholine (3H-MCC) to rat cortical receptors; conditions: for IC50: rat cortical receptors, 3H-MCC 2 nM, 0° C., 60 min; for Oxo/MCC Ratio: selectivity for nicotinic (3H-MCC) over muscarinic (3H-Oxo) receptors, rat cortex
T1 construct: Fresh or frozen rat, brain tissue (hippocampus or cortex) was homogenized in assay buffer; from tissue; host or cells: rat brain tissue (hippocampus or cortex)
T1 sequence (P09483 31-630): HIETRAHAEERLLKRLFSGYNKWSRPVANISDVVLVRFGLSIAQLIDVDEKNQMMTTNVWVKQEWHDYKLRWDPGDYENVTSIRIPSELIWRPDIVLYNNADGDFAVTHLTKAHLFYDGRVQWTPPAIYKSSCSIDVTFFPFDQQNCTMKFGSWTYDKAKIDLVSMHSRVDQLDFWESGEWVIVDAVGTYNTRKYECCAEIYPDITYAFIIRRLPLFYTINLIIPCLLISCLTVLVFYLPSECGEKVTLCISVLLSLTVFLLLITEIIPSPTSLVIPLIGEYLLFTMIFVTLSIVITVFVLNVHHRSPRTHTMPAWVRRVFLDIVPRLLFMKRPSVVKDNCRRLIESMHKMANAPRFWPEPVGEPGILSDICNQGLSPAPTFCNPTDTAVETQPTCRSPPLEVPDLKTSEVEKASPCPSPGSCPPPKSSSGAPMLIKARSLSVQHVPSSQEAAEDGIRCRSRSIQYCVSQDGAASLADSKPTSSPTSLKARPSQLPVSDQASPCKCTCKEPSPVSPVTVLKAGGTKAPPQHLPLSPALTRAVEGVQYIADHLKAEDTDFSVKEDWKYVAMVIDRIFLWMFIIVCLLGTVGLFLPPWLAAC
T1 sequence (P12390 25-500): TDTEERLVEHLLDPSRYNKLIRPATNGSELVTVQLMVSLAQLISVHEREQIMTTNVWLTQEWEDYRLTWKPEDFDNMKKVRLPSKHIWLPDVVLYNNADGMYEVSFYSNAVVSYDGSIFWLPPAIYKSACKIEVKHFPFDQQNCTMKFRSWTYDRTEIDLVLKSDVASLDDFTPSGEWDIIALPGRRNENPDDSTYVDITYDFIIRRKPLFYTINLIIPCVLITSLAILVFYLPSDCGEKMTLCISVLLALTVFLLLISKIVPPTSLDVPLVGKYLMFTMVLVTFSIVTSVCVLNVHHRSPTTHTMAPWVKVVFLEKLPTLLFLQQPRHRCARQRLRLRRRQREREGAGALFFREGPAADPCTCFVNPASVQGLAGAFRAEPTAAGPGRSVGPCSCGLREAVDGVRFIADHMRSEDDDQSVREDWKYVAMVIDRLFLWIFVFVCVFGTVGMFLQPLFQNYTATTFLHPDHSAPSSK
Excerpt: The pharmacological properties of the compounds of the invention can be illustrated by determining their capability to inhibit the specific binding of ^3 H-methylcarbamylcholine (^3 H-MCC) (Abood and Grassi, Biochem. Pharmacol., Vol. 35, pp. 4199-4202, (1986)).
^3 H-MCC labels the nicotinic receptors in the CNS. The inhibitory effect on ^3 H-MCC binding reflects the affinity for nicotinic acetylcholine receptors.
Fresh or frozen rat, brain tissue (hippocampus or cortex) was homogenized in assay buffer (5OmM Tris--HCI, pH 7.4, 120 mM NaCI, 5 mM KCI, 2 mM CaCI21 1mM MgCI2) and centrifuged for 10 min. at 40.000×g.Pellets were subsequently reconstituted in assay buffer and an appropriate amount of tissue sample was mixed in tubes with ^3 H--methylcarbamylcholine (NEN, NET--951; final concentration 2 nM) and test drug. The tubes were incubated at 0° C. for 60 min. Unbound ligand was separated from bound ligand by vacuum filtration through GF/B filters presoaked in 0.5 % polyethylenimine. Filters were washed three times with 5 ml wash buffer (50mM Tris--HCI, pH 7.4) and transferred to vials. 4 ml scintillation fluid was added and the radioactivity was measured by scintillation counting. Unspecific binding was measured with 10 μM nicotine.
The IC50 values of the test compounds were determined by nonlinear regression analyses (GraphPad InPlot).
Table I illustrates the affinity of the compounds of the present invention for nicotinic and muscarinic receptors as determined by ^3 H-MCC and ^3 H-Oxo binding to rat cortical receptors. The compounds, however, show selective affinity for nicotinic receptors as compared to muscarinic receptors, i.e OXO/MCC >1.

[2] = molecular target: muscarinic acetylcholine receptors; experiment: inhibition of specific binding of 3H-Oxotremorine-M (3H-Oxo) to rat cortical receptors; conditions: 3H-Oxo 1.0 nM, 25° C., 30 min
Excerpt: Furthermore, the pharmacological properties of the compounds of the invention can also be illustrated by determining their capability to inhibit the specific binding of ^3 H-Oxotremorine--M (^3 H-Oxo). Birdsdall N.J.M., Hulme E.C., and Burgen A.S.V. (1980). "The Character of Muscarinic Receptors in Different Regions of the Rat Brain". Proc. Roy. Soc. London (Series B) 207,1.
^3 H-Oxo labels muscarinic receptor in the CNS (with a preference for agonist domains of the receptors). Three different sites are labelled by ^3 H-Oxo. […] Using the present experimental conditions only the high and medium affinity sites are determined.
The inhibitory effects of compounds on ^3 H--Oxo binding reflects the affinity for muscarinic acetylcholine receptors.
All preparations are performed at 0-4° C. unless otherwise indicated. […]
The final pellet is homogenized in 20 mM Hepes pH: 7.4 (100 ml per g of original tissue) and used for binding assay. […] Non-specific binding is determined in triplicate using arecoline (1 ug/ml, final concentration) as the test substance. […] The amount of radioactivity on the filters are determined by conventional liquid scintillation counting. […]
Table I illustrates the affinity of the compounds of the present invention for nicotinic and muscarinic receptors as determined by ^3 H-MCC and ^3 H-Oxo binding to rat cortical receptors. […]

[3] = system: substantia nigra; conditions: chronic nicotine; cited from earlier work
[4] = system: dopaminergic effects in various behavioral models; conditions: cited from earlier work
[5] = system: dopamine release in the nucleus accumbens; conditions: cited from earlier work
[6] = in vivo; cited from earlier work

Compound	IC50 [1]	Oxo/MCC Ratio [1]	IC50 [2]	protection against cell loss in the substantia nigra caused by lesioning [3]	potentiation of dopaminergic effects [4]	stimulation of dopamine release, nucleus accumbens versus striatum [5]	effect in Tourette's syndrome [6]
Cc1cc(/C=C2/CCCN(C)C2)on1.O=C(O)C(=O)O [Compound 1, (Z)-3-(3-Methyl-5-isoxazolyl)methylene-1-methylpiperidine oxalate]	3.05 µM	1.7	5.15 µM				
Cc1cc(/C=C2/CCCNC2)on1.Cl [Compound 5, (Z)-3-(3-Methyl-5-isoxazolyl)methylenepiperidine hydrochloride]	0.1 µM	100	10 µM				
CN1CCCC1c1cccnc1 (stereo not shown) [nicotine]				may protect against cell loss in the substantia nigra caused by lesioning	will potentiate dopaminergic effects in various behavioral models	stimulates dopamine release in the nucleus accumbens more potently than in striatum	beneficial effects in Tourette's syndrome
